Measured values from patent publication US8076334B2, “Prodrugs of thyroid hormone analogs” (Hoffmann-La Roche Inc., priority 2007, dated 2011).

Assays:
[1] = Permeability from Caco-2 cells (transport assay); type: in vitro ADME; conditions: human; Caco-2 monolayers, transport medium pH 7.4, samples at 60 and 120 min
Method: (§1) Caco-2 cells were grown in Minimum Essential Medium (MEM), containing 10% fetal bovine serum, 1% non-essential amino acids, 100 units/ml penicillin and 100 μg/ml streptomycin. They were incubated at 37° C. in a humidified atmosphere of 5% CO2. Culture medium was changed every other day. Caco-2 cells were passed once per week by trypsinization.
(§2) Caco-2 cells were seeded at a density of 4.55×10^5 cells/cm^2. Caco-2 cells were incubated for 7 days at 37° C. Medium was changed every two or three days for Caco-2 cells. Prior to the experiment, cells were equilibrated with transport medium [HBSS (pH 7.4) containing 10 mM HEPES] at 37° C. for 30 min. The transepithelial electrical resistance (TEER) of cell monolayers was measured using “chopstick” electrodes (World Precision Instruments, Sarasota, Fla.). Caco-2 cell monolayers with TEER values>500 were used for the assays.
(§3) Samples were prepared in transport medium containing 1% DMSO. Test compounds were applied to the donor chamber at 10 μM. Plates were incubated at 37 °C while shaking at 90 rpm. Samples were taken at 60 and 120 min from the receiver chamber. TEER values were measured at 5 minutes before the final sampling time point. Samples were mixed with 2 volumes of acetonitrile and centrifuged at 3,500 rpm at 4° C. for 10 min. The supernatant was diluted with 1 volume of water containing 1% acetic acid. Samples were analyzed by LC/MS. Standard serial dilutions were prepared manually at 10, 50, 250, 1,250 and 2,500 nM.
(§4) The apparent permeability (Papp) was calculated with the following equation:
(§5) [formula] where C is the receiver chamber drug concentration, t is time in second, V is the volume of the receiver chamber, Co is the initial drug concentration in the donor chamber and A is the surface area of the filter.

[2] = test system: Caco-2 cells; assay: Permeability from Caco-2 cells (transport assay); type: in vitro ADME; conditions: Caco-2; calculated from pro-drug only, does not include converted drug; in % (unit assumed)
Method: as §1, §2, §3, §4, §5

[3] = molecular target: T1, THR-beta/RXR/GRIP (Homo sapiens, UniProt P10828); assay: THR-beta/RXR/GRIP coactivator peptide recruitment assay (HTRF); type: biochemical; conditions: H6-TRβ ligand binding domain, EE-RxRα, biotin-GRIP peptide
T1 construct: made in house; host or cells: E. coli BL21 (DE3) for H6-TRβ; E. coli for EE-RxRα
T1 sequence (P10828 202-461 limits assumed): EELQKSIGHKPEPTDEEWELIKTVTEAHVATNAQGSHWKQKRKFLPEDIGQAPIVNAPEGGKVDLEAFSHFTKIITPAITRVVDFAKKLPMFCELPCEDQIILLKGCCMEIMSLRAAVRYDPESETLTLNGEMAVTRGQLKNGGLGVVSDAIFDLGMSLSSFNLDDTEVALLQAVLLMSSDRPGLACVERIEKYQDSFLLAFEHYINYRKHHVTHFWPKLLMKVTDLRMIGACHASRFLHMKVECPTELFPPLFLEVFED
T1 sequence (P19793 225-462 partner limits assumed): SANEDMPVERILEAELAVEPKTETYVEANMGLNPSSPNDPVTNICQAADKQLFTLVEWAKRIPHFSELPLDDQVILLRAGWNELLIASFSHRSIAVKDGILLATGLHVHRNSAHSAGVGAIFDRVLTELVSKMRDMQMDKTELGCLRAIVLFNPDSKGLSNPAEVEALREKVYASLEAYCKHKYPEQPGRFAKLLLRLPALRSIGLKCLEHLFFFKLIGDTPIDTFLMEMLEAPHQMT
T1 sequence (Q15596 679-703 partner limits assumed): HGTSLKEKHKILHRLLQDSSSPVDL
Method: In this Example, a TR/RXR/GRIP assay was used to test representative compounds of formula (I).
Lysozyme (1.0 mg/ml, Sigma) and Complete Protease Inhibitor Cocktail (Roche Diagnostics Gmbh) were added to slurry and solution sonicated for one min five times at 4° C.
The resulting His6-EE-tagged protein was produced in E. coli cells. Cells were grown using shake flasks with an 18 hour induction in 0.1 mM IPTG at 18° C., harvested and suspended with five volumes of Buffer B (0.025M Tris, 0.3M NaCl, 0.02 M imidazole, 0.01M β-mercaptoethanol, pH 8.0). Lysozyme (0.2 mg/ml, Sigma) and Complete Protease Inhibitor Cocktail (Roche Diagnostics Gmbh) were added and stirred for 30 min. at 4° C. The suspension was sonicated for 30 seconds, five times, at 4° C. The suspension was centrifuged for 20 min. at 12,000 RCF. The supernatant was filtered by 0.45 μm pore size membrane and 0.5% NP-40 was added. […] The protein was concentrated and dialyzed.
The His6 tag was removed from EE-RxRα by thrombin digestion, using 10 units thrombin (Pharmacia, Piscataway, N.J.) per mg protein and incubating for 2 hours at 25° C. […]
Six microliters of T3 (0-14.8 uM) or test compound (0-1.2 mM) in DMSO was then added and the solution incubated at 37° C. for 30 min. […] The HTRF signal was read on the Victor 5 reader (PerkinElmer Life and Analytical Sciences).

[4] = Single dose PO PK in rats; type: in vivo; conditions: rat, 10 mg/kg PO
Method: A single dose (10 mg/kg) PO (intubation) PK in rats (3 animals) was performed with the compound of Example 5 using a 2% Klucel, 0.1% Tween 80 in water formulation.
Aliquots (0.05 mL) of rat plasma were protein precipitated with acetonitrile. The extracts were diluted with an equal volume of water and injected onto the LC/MS/MS system.
Both the prodrug and parent, compound Ia, were monitored. […] Variability in exposure of the parent after dosing with the prodrug was improved over that obtained after dosing with parent.

[5] = Single dose PO PK in dogs; type: in vivo; conditions: dog, 10 mg/kg PO
Method: A single dose (10 mg/kg) PO (intubation) PK in dogs (3 animals) was performed with the compound of Example 5 using a 2% Klucel, 0.1% Tween 80 in water formulation.
Aliquots (0.05 mL) of dog plasma were mixed with 0.050 mL of pH 7.4 phosphate buffered saline and a 0.010 mL aliquot of a stable labeled internal standard working solution. Each of the samples was then extracted with 0.500 mL of ethyl acetate. A 0.350 mL aliquot of each of the sample extract supernatant was transferred to an injection block and evaporated to dryness using the turbovap evaporator. The sample was then reconstituted with 0.200 mL of a 1:1 mixture of water:acetonitrile containing 0.1% acetic acid. A 0.020 mL sample from each well was injected onto the LC/MS/MS system.
The compound of Example 5was dosed orally to dogs at 10 mg/kg. Both the prodrug and parent, compound Ia, were monitored. […] However, the variability in the oral exposure was reduced when dosed with the compound of Example 5 as compared when dosed with parent.

[6] = plasma level of parent compound Ia

Row | Compound | Papp at 120 min, 10 μM [1] [×10⁻⁶ cm/s] | Mass Balance [2] | other results
1 | CC(=O)OCn1nc(Oc2c(Cl)cc(-n3nc(C#N)c(=O)[nH]c3=O)cc2Cl)cc(C(C)C)c1=O [Example 2, Acetic acid 3-[2,6-dichloro-4-(6-cyano-3,5-dioxo-4,5-dihydro-3H-[1,2,4]triazin-2-yl)-phenoxy]-5-isopropyl-6-oxo-6H-pyridazin-1-ylmethyl ester] | 4.58 ± 0.74 | 71.0 | 
2 | CC(C)C(=O)OCn1nc(Oc2c(Cl)cc(-n3nc(C#N)c(=O)[nH]c3=O)cc2Cl)cc(C(C)C)c1=O [Example 5, Isobutyric acid 3-[2,6-Dichloro-4-(6-cyano-3,5-dioxo-4,5-dihydro-3H-[1,2,4]triazin-2-yl)-phenoxy]-5-isopropyl-6-oxo-6H-pyridazin-1-ylmethyl ester] | 8.87 ± 0.63 | 47.9 | EC50 [3]: > 57.6 µM; Absorption of the prodrug compared with the parent [4]: faster than the parent; Variability in exposure of the parent after dosing with the prodrug versus dosing with parent [4]: improved; Species detected in plasma after oral dosing of the prodrug ([4]; prodrug and parent monitored): only the parent was detected; Bioavailability of parent after dosing with the prodrug versus dosing with parent [5]: comparable; Variability in the oral exposure versus dosing with parent [5]: reduced; Species detected in plasma after oral dosing of the prodrug ([5]; prodrug and parent monitored): only the parent was detected
3 | CC(C)c1cc(Oc2c(Cl)cc(-n3nc(C#N)c(=O)[nH]c3=O)cc2Cl)nn(COC(=O)c2cnccn2)c1=O [Example 8, Pyrazine-2-carboxylic acid 3-[2,6-dichloro-4-(6-cyano-3,5-dioxo-4,5-dihydro-3H-[1,2,4]triazin-2-yl)-phenoxy]-5-isopropyl-6-oxo-6H-pyridazin-1-ylmethyl ester] | 0.92 ± 0.11 | 92.8 | 
4 | CC(C)c1cc(Oc2c(Cl)cc(-n3nc(C#N)c(=O)[nH]c3=O)cc2Cl)nn(COC(=O)CCC(=O)O)c1=O [Example 13, Succinic acid mono-{3-[2,6-dichloro-4-(6-cyano-3,5-dioxo-4,5-dihydro-3H-[1,2,4]triazin-2-yl)-phenoxy]-5-isopropyl-6-oxo-6H-pyridazin-1-ylmethyl}ester] | 0.23 ± 0.06 | 84.4 | 
5 | CC(C)c1cc(Oc2c(Cl)cc(-n3nc(C#N)c(=O)[nH]c3=O)cc2Cl)n[nH]c1=O [Ia, 2-[3,5-Dichloro-4-(5-isopropyl-6-oxo-1,6-dihydro-pyridazin-3-yloxy)-phenyl]-3,5-dioxo-2,3,4,5-tetrahydro-[1,2,4]triazine-6-carbonitrile, reference compound] |  |  | AUC Extrap [4, 6]: 28,663 ng * Hours/mL; Tmax [4, 6]: 5 h; AUC [5, 6]: 2,936 ng * Hours/mL; Tmax [5, 6]: 3 h

Further lines, with some results ahead:

Row | Papp at 120 min, 10 μM [1] [×10⁻⁶ cm/s] | Mass Balance [2] | Compound | other results
6 | 1.24 ± 0.24 | 101.5 | CC(C)c1cc(Oc2c(Cl)cc(-n3nc(C#N)c(=O)[nH]c3=O)cc2Cl)nn(COC(=O)N2CCOCC2)c1=O [Example 6, Morpholine-4-carboxylic acid 3-[2,6-dichloro-4-(6-cyano-3,5-dioxo-4,5-dihydro-3H-[1,2,4]triazin-2-yl)-phenoxy]-5-isopropyl-6-oxo-6H-pyridazin-1-ylmethyl ester] | 
7 | 1.75 ± 0.65 | 95.0 | CC(C)c1cc(Oc2c(Cl)cc(-n3nc(C#N)c(=O)[nH]c3=O)cc2Cl)nn(COC(=O)CN2CCOCC2)c1=O [Example 12, Morpholin-4-yl-acetic acid 3-[2,6-dichloro-4-(6-cyano-3,5-dioxo-4,5-dihydro-3H-[1,2,4]triazin-2-yl)-phenoxy]-5-isopropyl-6-oxo-6H-pyridazin-1-ylmethyl ester] | 
